Data reported in US20230111310A1, “CARBOXYLIC ACID DERIVATIVE-SUBSTITUTED IMINO ARYL COMPOUND, PREPARATION METHOD THEREFOR, HERBICIDAL COMPOSITION AND USE THEREOF” (Qingdao Kingagroot Chemical Compound Co., Ltd., priority 2020, published 2023).

What was measured:
Assay type in all cases: in vivo
Abutilon theophrasti [1] = assay: Weeding effect in post-emergence stage; settings: Dose 15 g/ha; for Weeding effect in post-emergence stage, Abutilon theophrasti: level of fresh weight growth control rate
How it was run: (§1)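 Pot-grown weeds were sprayed at the 2-3 leaf stage, 2 weeks after sowing, with compound in acetone plus Tween 80 and 1.5 liter/ha methyl oleate emulsifiable concentrate, diluted in water. Doses were 500, 250, 125, 60, 30, 15, 7.5 g/ha. Growth control was scored after 3 weeks in greenhouse; mean of three replicates.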

Alopecurus japonicus = assay: Weeding effect in post-emergence stage; settings: Dose 15 g/ha; for Weeding effect in post-emergence stage, Alopecurus japonicus: level of fresh weight growth control rate
How it was run: as §1

Digitaria sanguinalis = assay: Weeding effect in post-emergence stage; settings: Dose 15 g/ha; for Weeding effect in post-emergence stage, Digitaria sanguinalis: level of fresh weight growth control rate
How it was run: as §1

Eleusine indica = assay: Weeding effect in post-emergence stage; settings: Dose 15 g/ha; for Weeding effect in post-emergence stage, Eleusine indica: level of fresh weight growth control rate
How it was run: as §1

Setaria viridis [2] = assay: Weeding effect in post-emergence stage; settings: Dose 15 g/ha; for Weeding effect in post-emergence stage, Setaria viridis: level of fresh weight growth control rate
How it was run: as §1

Echinochloa crusgalli = assay: Weeding effect in post-emergence stage; settings: Dose 15 g/ha; for Weeding effect in post-emergence stage, Echinochloa crusgalli: level of fresh weight growth control rate
How it was run: as §1

Abutilon theophrasti [3] = assay: Weeding effect in pre-emergence stage; settings: 30 g/ha, 4 weeks
Method: (§2) The activity level criteria for plant damage (i.e., growth control rate) are as follows:
(§3) The aforementioned seeds of monocotyledonous and dicotyledonous weeds and main crops were put into a plastic pot loaded with soil and covered with 0.5-2 cm soil. The test compounds of the present invention was dissolved with acetone, then added with tween 80, diluted by a certain amount of water to reach a certain concentration, and sprayed immediately after sowing. The obtained seeds were incubated for 4 weeks in the greenhouse after spraying and the test results were observed. It was observed that the herbicide mostly had excellent effect at the application rate of 500, 250, 125, 60, 30, 15, 7.5 g/ha, especially to weeds such as Echinochloa crusgalli. Digitaria sanguinalis and Abutilon theophrasti, etc. And many compounds had good selectivity for corn, cotton, wheat, rice, soybean, and peanut etc. In addition, evaluate the weed control effect with the above activity standard level.

Amaranthus retroflexus = assay: Weeding effect in pre-emergence stage; settings: 30 g/ha, 4 weeks
Method: as §2, §3

Capsella bursa-pastoris = assay: Weeding effect in pre-emergence stage; settings: 30 g/ha, 4 weeks
Method: as §2, §3

Descurainia sophia = assay: Weeding effect in pre-emergence stage; settings: 30 g/ha, 4 weeks
Method: as §2, §3

Setaria viridis [4] = assay: Weeding effect in pre-emergence stage; settings: 30 g/ha, 4 weeks
Method: as §2, §3

Veronica didyma Tenore = assay: Weeding effect in pre-emergence stage; settings: 30 g/ha, 4 weeks
Method: as §2, §3

Peanut = assay: Pre-emergence stage, crop selectivity; settings: 30 g/ha, 4 weeks
Method: as §2, §3

Soybeans = assay: Pre-emergence stage, crop selectivity; settings: 30 g/ha, 4 weeks
Method: as §2, §3

corn = assay: Pre-emergence stage, crop selectivity; settings: 30 g/ha, 4 weeks
Method: as §2, §3

cotton = assay: Pre-emergence stage, crop selectivity; settings: 30 g/ha, 4 weeks
Method: as §2, §3

[5] = fresh weight control rate level

Row | SMILES | Weeding effect in post-emergence stage, Abutilon theophrasti (Abutilon theophrasti [1]) | Weeding effect in post-emergence stage, Alopecurus japonicus (Alopecurus japonicus) | Weeding effect in post-emergence stage, Digitaria sanguinalis (Digitaria sanguinalis) | Weeding effect in post-emergence stage, Eleusine indica (Eleusine indica) | Weeding effect in post-emergence stage, Setaria viridis (Setaria viridis [2]) | Weeding effect in post-emergence stage, Echinochloa crusgalli (Echinochloa crusgalli) | activity level (growth control rate) Abutilon theophrasti (Abutilon theophrasti [3]) | activity level (growth control rate) Amaranthus retroflexus (Amaranthus retroflexus) | activity level (growth control rate) Capsella bursa-pastoris (Capsella bursa-pastoris) | activity level (growth control rate) Descurainia sophia (Descurainia sophia) | activity level (growth control rate) Setaria viridis (Setaria viridis [4]) | activity level (growth control rate) Veronica didyma Tenore (Veronica didyma Tenore) | plant damage level Peanut (Peanut) | plant damage level Soybeans (Soybeans) | plant damage level Corn (corn) | plant damage level Cotton (cotton) | also measured
1 | C[C@@H](O/N=C/c1cc(-n2c(=O)cc(C(F)(F)F)n(C)c2=O)c(F)cc1Cl)C(=O)ON=C1CCCC1 [258(R)] | 5 (Level 5: growth control rate is above 85%) | 4 (Level 4: growth control rate is greater than or equal to 60% and less than 85%) | 5 (Level 5: growth control rate is above 85%) | 5 (Level 5: growth control rate is above 85%) | 5 (Level 5: growth control rate is above 85%) | 5 (Level 5: growth control rate is above 85%) | 5 (Level 5: growth control rate is above 85%) | 5 (Level 5: growth control rate is above 85%) | 5 (Level 5: growth control rate is above 85%) | 5 (Level 5: growth control rate is above 85%) | 5 (Level 5: growth control rate is above 85%) | 5 (Level 5: growth control rate is above 85%) | 0 (Level 0: growth control rate is less than 5%) | 0 (Level 0: growth control rate is less than 5%) | 0 (Level 0: growth control rate is less than 5%) | 0 (Level 0: growth control rate is less than 5%) | –
2 | COC(=O)[C@@H](C)O/N=C/c1cc(N2C(=O)CC(N)(C(F)(F)F)N(C)C2=O)c(F)cc1Cl (stereo partly drawn) [432(R)] | – | – | – | – | – | – | 5 (Level 5: growth control rate is above 85%) | 5 (Level 5: growth control rate is above 85%) | 5 (Level 5: growth control rate is above 85%) | 5 (Level 5: growth control rate is above 85%) | 5 (Level 5: growth control rate is above 85%) | 5 (Level 5: growth control rate is above 85%) | 0 (Level 0: growth control rate is less than 5%) | 0 (Level 0: growth control rate is less than 5%) | 0 (Level 0: growth control rate is less than 5%) | 0 (Level 0: growth control rate is less than 5%) | Weeding effect in post-emergence stage, Abutilon theophrasti (level) (Abutilon theophrasti [1]; [5]): 5 (Level 5: growth control rate is above 85%); Weeding effect in post-emergence stage, Alopecurus japonicus (level) (Alopecurus japonicus; [5]): 5 (Level 5: growth control rate is above 85%); Weeding effect in post-emergence stage, Digitaria sanguinalis (level) (Digitaria sanguinalis; [5]): 5 (Level 5: growth control rate is above 85%); Weeding effect in post-emergence stage, Eleusine indica (level) (Eleusine indica; [5]): 5 (Level 5: growth control rate is above 85%); Weeding effect in post-emergence stage, Setaria viridis (level) (Setaria viridis [2]; [5]): 5 (Level 5: growth control rate is above 85%); Weeding effect in post-emergence stage, Echinochloa crusgalli (level) (Echinochloa crusgalli; [5]): 5 (Level 5: growth control rate is above 85%)
3 | CCOC(=O)OC(C)OC(=O)[C@@H](C)O/N=C/c1cc(-n2c(=O)cc(C(F)(F)F)n(C)c2=O)c(F)cc1Cl (stereo partly drawn) [246(R)] | 5 (Level 5: growth control rate is above 85%) | 5 (Level 5: growth control rate is above 85%) | 5 (Level 5: growth control rate is above 85%) | 5 (Level 5: growth control rate is above 85%) | 5 (Level 5: growth control rate is above 85%) | 5 (Level 5: growth control rate is above 85%) | 5 (Level 5: growth control rate is above 85%) | 5 (Level 5: growth control rate is above 85%) | 5 (Level 5: growth control rate is above 85%) | 5 (Level 5: growth control rate is above 85%) | 5 (Level 5: growth control rate is above 85%) | 5 (Level 5: growth control rate is above 85%) | 0 (Level 0: growth control rate is less than 5%) | 0 (Level 0: growth control rate is less than 5%) | 0 (Level 0: growth control rate is less than 5%) | 0 (Level 0: growth control rate is less than 5%) | –
4 | CC(C)OC(=O)[C@@H](C)O/N=C/c1cc(-n2c(=O)cc(C(F)(F)F)n(C)c2=O)c(F)cc1Cl [199(R)] | 5 (Level 5: growth control rate is above 85%) | 5 (Level 5: growth control rate is above 85%) | 5 (Level 5: growth control rate is above 85%) | 5 (Level 5: growth control rate is above 85%) | 5 (Level 5: growth control rate is above 85%) | 5 (Level 5: growth control rate is above 85%) | 5 (Level 5: growth control rate is above 85%) | 5 (Level 5: growth control rate is above 85%) | 5 (Level 5: growth control rate is above 85%) | 5 (Level 5: growth control rate is above 85%) | 5 (Level 5: growth control rate is above 85%) | 5 (Level 5: growth control rate is above 85%) | 0 (Level 0: growth control rate is less than 5%) | 0 (Level 0: growth control rate is less than 5%) | 0 (Level 0: growth control rate is less than 5%) | 0 (Level 0: growth control rate is less than 5%) | –
5 | C=CCOC(=O)[C@@H](C)O/N=C/c1cc(-n2c(=O)cc(C(F)(F)F)n(C)c2=O)c(F)cc1Cl [208(R)] | 5 (Level 5: growth control rate is above 85%) | 5 (Level 5: growth control rate is above 85%) | 5 (Level 5: growth control rate is above 85%) | 5 (Level 5: growth control rate is above 85%) | 5 (Level 5: growth control rate is above 85%) | 5 (Level 5: growth control rate is above 85%) | 5 (Level 5: growth control rate is above 85%) | 5 (Level 5: growth control rate is above 85%) | 5 (Level 5: growth control rate is above 85%) | 5 (Level 5: growth control rate is above 85%) | 5 (Level 5: growth control rate is above 85%) | 5 (Level 5: growth control rate is above 85%) | 0 (Level 0: growth control rate is less than 5%) | 0 (Level 0: growth control rate is less than 5%) | 0 (Level 0: growth control rate is less than 5%) | 0 (Level 0: growth control rate is less than 5%) | –
6 | CCCOC(=O)[C@@H](C)O/N=C/c1cc(-n2c(=O)cc(C(F)(F)F)n(C)c2=O)c(F)cc1Cl [198(R)] | 5 (Level 5: growth control rate is above 85%) | 5 (Level 5: growth control rate is above 85%) | 5 (Level 5: growth control rate is above 85%) | 5 (Level 5: growth control rate is above 85%) | 5 (Level 5: growth control rate is above 85%) | 5 (Level 5: growth control rate is above 85%) | 5 (Level 5: growth control rate is above 85%) | 5 (Level 5: growth control rate is above 85%) | 5 (Level 5: growth control rate is above 85%) | 5 (Level 5: growth control rate is above 85%) | 5 (Level 5: growth control rate is above 85%) | 5 (Level 5: growth control rate is above 85%) | 0 (Level 0: growth control rate is less than 5%) | 0 (Level 0: growth control rate is less than 5%) | 0 (Level 0: growth control rate is less than 5%) | 0 (Level 0: growth control rate is less than 5%) | –
